Measured values from patent publication US20190008828A1, “METHODS FOR INHIBITING HUMAN IMMUNODEFICIENCY VIRUS (HIV) RELEASE FROM INFECTED CELLS” (priority 2015, published 2019).
“Also recorded” adds a separate entry of the source. Like-named read-outs stand apart in the source and are kept apart here.

B1: soluble human L-selectin (sCD62L) (receptor, UniProt P14151 39-332, looked up)
chain: WTYHYSEKPMNWQRARRFCRDNYTDLVAIQNKAEIEYLEKTLPFSRSYYWIGIRKIGGIWTWVGTNKSLTEEAENWGDGEPNNKKNKEDCVEIYIKRNKDAGKWNDDACHKLKAALCYTASCQPWSCSGHGECVEIINNYTCNCDVGYYGPQCQFVIQCEPLEAPELGTMDCTHPLGNFSFSSQCAFSCSEGTNLTGIEETTCGPFGNWSSPEPTCQVIQCEPLSAPDLGIMNCSHPLASFSFTSACTFICSEGTELIGKKKTICESSGIWSNPSPICQKLDKSFSMIKEGDYN
notes: also called soluble CD62L; recombinant CD62L
B2: PBJ: recombinant gp120, strain PBJ, SIV (protein)
chain: VQYVTVFYGIPAWRNATVPLFCATKNRDTWGTTQCLPDNGDYSELAINVTEAFDAWDNTVTEQAIEDVWNLFETSIKPCVKLTPLCITMRCNKSETDRWGLTGTPAPTTTQTTTTQASTTPTSPITAKVVNDSDPCIKINNCTGLEQEPMVSCKFNMTGLKRDKKREYNETWYSRDLVCEQNSNETDSKCYMNHCNTSVIQESCDKHYWDAIRFRYCAPPGYALLRCNDSNYSGFAPNCTKVVVSSCTRMMETQTSTWFGFNGTRAENRTYIYWHGRSNRTIISLNKYYNLTMRCRRPGNKTVLPVTIMSGLVFHSQPINERPKQAWCWFGGEWKKAIQEVKETLVKHPRYTGTNKTEQIKLTAPGGGDPEVTFMWTNCRGEFLYCKMNWFLNWVENIQNGSRWTSQNQKERQRRNYVPCHIRQIINTWHKVGKNVYLPPREGDLTCNSTVTSLIAEIDWINGNETNITMSAEVAELYRLELGDYKLVEITPIAFAPTSVKRYTTTGASRNKR
B3: recombinant PSGL-1 (ligand, UniProt Q14242 42-295, looked up)
chain: QATEYEYLDYDFLPETEPPEMLRNSTDTTPLTGPGTPESTTVEPAARRSTGLDAGGAVTELTTELANMGNLSTDSAAMEIQTTQPAATEAQTTQPVPTEAQTTPLAATEAQTTRLTATEAQTTPLAATEAQTTPPAATEAQTTQPTGLEAQTTAPAAMEAQTTAPAAMEAQTTPPAAMEAQTTQTTAMEAQTTAPEATEAQTTQPTATEAQTTPLAAMEALSTEPSATEALSMEPTTKRGLFIPFSVSSVTHKG
notes: also called P-selectin glycoprotein ligand-1

Experiments:
[1] = tested on: HIV-1 viral release; assay: HIV-1 release assay, CD4+ T cells of HIV-1-infected individuals; type: cell-based
Description: PBMCs were obtained by leukapheresis and ficoll-hypaque centrifugation. CD4+ T cells were isolated using a cell separation system (StemCell Technologies). Cells were cultured with medium alone or with plate-bound anti-CD3 and soluble anti-CD28 antibody in the absence (DMSO) or presence of BB-94 in duplicate for 48 hours. The copy number of virion-associated HIV RNA in the above cell culture supernatants was determined using the […]-1 Test, Version 2.0 (Roche Diagnostics). The limit of detection for this system is 20 copies/ml.

[2] = tested on: HIV-1BaL; assay: Cell-cell transfer TZM-BL assay; settings: TZM-BL co-incubated with HIV-1BaL-infected activated CD8-depleted PBMCs
Description: For the cell-cell transfer assay, TZM-BL and TZM-62L cells were seeded in a 96-well, flat-bottom plate at 3,000 cells/well three days before the assay. Three days post infection with HIV-1BaL, activated CD8-depleted PBMCs with and without the presence of BB-94 were added to the wells at the concentration of 80×10^3, 40×10^3, 20×10^3, 10×10^3, and 5×10^3 cells/well with the volume of each well equalized using the CD8− PBMC media. Additional BB-94 was added to both the cells infected in the presence of BB-94 and a sample of cells that only received BB-94 treatment for the cell-cell transfer assay. All conditions were prepared in triplicate. The cell mixtures were incubated at 37° C. for three days, followed by lysis and measurement of the subsequent luciferase expression as per the manufacturer's instructions.

[3] = tested on: HIV-1BaL; assay: HIV-1BaL infection of activated CD8-depleted PBMCs; type: cell-based; settings: for reduction of HIV-1BaL infection of CD4+ T cells: 5 μM
[4] = tested on: CD62L shedding; assay: CD62L shedding on activated CD8-depleted PBMCs; type: cell-based, human; settings: 100 μM concentration; supernatant CD62L by ELISA
[5] = target: T1, CD62L-Fc binding to immobilized gp120 (Homo sapiens, UniProt P14151); assay: Soluble gp120 and CD62L ELISA in presence of inhibitors; settings: 10 mM EDTA or 10 mg/ml carbohydrates
T1 construct: Soluble gp120 and CD62L ELISA; Fc (IgG); purchased R&D Systems, Inc
T1 sequence (P14151 39-332 limits assumed): B1 chain
Description: Fifty ng of gp120 proteins were immobilized in individual wells of a 96-well plate for 1 hour at room temperature in coating buffer (10 mM Tris [pH7.5] and 2 mM CaCl2), blocked for 1 hour using blocking buffer (10 mM Tris [pH7.5], 0.1% Tween20), and washed three times with the same buffer. […] The plate was washed five times and readout was colorimetric using a TMB substrate and analyzed on a SPECTRAMAX™ Plus 384 spectrophotometer (Molecular Devices).

[6] = target: T2, soluble human L-selectin (sCD62L) (Homo sapiens, UniProt P14151); assay: SPR (Biacore 3000), gp120 injected over immobilized CD62L
[7] = target: B1; assay: SPR (Biacore 3000), CD62L ligand against CD62L
[8] = target: T3, gp120 of strain PBJ (SIV) (SIV, UniProt P19503 23-535); assay: SPR (Biacore 3000), gp120 injected over immobilized CD62L
T3 sequence: B2 chain

[9] = target: T2, soluble human L-selectin (sCD62L); type: binding; settings: recombinant gp120 injected over immobilized CD62L, SPR; read-out: KD (nM), Solution KD for CD62L

## CNC(=O)[C@H](Cc1ccccc1)NC(=O)[C@H](CC(C)C)[C@H](CSc1cccs1)C(=O)NO [BB-94, Batimastat]
[1]; paired DMSO and BB-94 treatment, viremic and aviremic individuals
  inhibition of HIV-1 viral release among infected individuals: 30%-90%
[2]
  reduction in the viral infection of TZM-BL cells compared to the control: 80%
[3]; day 6, intracellular p24
  reduction of HIV-1BaL infection of CD4+ T cells: 60%
[3]; day 11, intracellular p24
  reduction of HIV-1BaL infection of CD4+ T cells: 80%

## O=P(O)(O)C(Cl)(Cl)P(=O)(O)O [DMDP, dichloromethylenediphosphonic acid]
[4]
  CD62L shedding: showed no effect
[1]; anti-CD3 stimulated CD4+ T cells from viremic and aviremic individuals, 48 hours
  activation-induced viral release, virion-associated HIV-1 RNA in supernatant: neither DMSO nor DMDP affected the viral release
[3]; 100 μM concentration, intracellular p24
  HIV-1BaL infection: showed no effect

## O=C(O)CN(CCN(CC(=O)O)CC(=O)O)CC(=O)O [EDTA]
[3]; 5 mM EDTA
  HIV-1BaL infection, intracellular viral capsid p24: significantly reduced

## CC(=O)N[C@H]1C(O)O[C@H](CO)[C@@H](O)[C@@H]1O (stereo partly drawn) [N-acetylglucosamine, N-acetyl-D-glucosamine]
[5]
  gp120-CD62L binding in the presence of inhibitor: not

## OC[C@H]1O[C@@H](O[C@H]2[C@H](O)[C@@H](O)C(O)O[C@@H]2CO)[C@H](O)[C@@H](O)[C@H]1O (some centres unmarked) [lactose]
[5]
  gp120-CD62L binding in the presence of inhibitor: not

## Heparin
[5]
  gp120-CD62L binding in the presence of inhibitor: competed with gp120 for receptor binding
[5]; listed as heparin
  gp120-CD62L binding in the presence of inhibitor: inhibited gp120 binding

## fucoidan
[5]
  gp120-CD62L binding in the presence of inhibitor: inhibited gp120 binding; also recorded: competed with gp120 for receptor binding

## gp120 of strain 11530 (Clade A) (ligand)
[6]
  Kd: 35 nM

## gp120 of strain CAP 88 (Clade C) (ligand)
[6]
  Kd: 71 nM

## gp120 of strain R66M (Clade A/C) (ligand)
[6]
  Kd: 18 nM

## gp120 of strain RV254 (Clade E) (ligand)
[6]
  Kd: 15 nM

## gp120 of strain Z185 (Clade C) (ligand)
[6]
  Kd: 58 nM

## recombinant gp120 from strain 20SF of Clade C (ligand)
[6]
  Kd: 53 nM

## sialyl-Lewis X
[5]
  gp120-CD62L binding in the presence of inhibitor: competed with gp120 for receptor binding
[5]; listed as Sialyl-Lewis
  gp120-CD62L binding in the presence of inhibitor: inhibited gp120 binding

## sialyllactose
[5]
  gp120-CD62L binding in the presence of inhibitor: inhibited

## soluble mucin (PSM-II) (ligand)
[7]
  Kd: 3800 nM

## B1
[8]
  Kd: 19 nM

## B2
[9]
  Kd: 19 ± 2 nM

## B3
[7]
  Kd: 50000 nM
